The subject of data set [1] is HCV. As to conditions: 20 μm pyrrolidine-2 vs untreated cells, FIG. 7.
Data set [2] has as its system DENV. As to conditions: Huh-7.5 cells, DV-R2A, 0, 5, 10 and 20 μM, added 42 h after transfection. As to the method: This example employs a standard bioassay for determining the effect of the cPLA2α inhibitor pyrrolidine-2 on the production of Huh-7.5 cells transfected with dengue virus RNA DV-R2A. The assay was performed according to standard protocols and materials were purchased from commercial suppliers and used according to respective manuals supplied therewith. Pyrrolidine-2 was added to the cells 42 h after transfection at the indicated final concentrations of 0, 5, 10 and 20 μM.

The test system of data set [3] is HCV. As to conditions: Jc1-transfected cells, 0, 5, 10 and 20 μM, added 42 h after transfection. As to the method: This example employs a standard bioassay for determining the effect of the cPLA2α inhibitor pyrrolidine-2 on the production of Jc1-transfected cells. The general assay set up is shown in
FIG. 2. The assay was performed according to standard protocols and materials were purchased from commercial suppliers and used according to respective manuals supplied therewith. Pyrrolidine-2 was added to the cells 42 h after transfection at […] the indicated final concentrations of 0, 5, 10 and 20 μM.

Data set [4] concerns HCV. As to conditions: 20 μm pyrrolidine-2 vs untreated cells; FIG. 4B. As to the method:
(§1) The assay was performed according to standard protocols and materials were purchased from commercial suppliers and used according to respective manuals supplied therewith.

The conditions of data set [5]: 20 μm pyrrolidine-2 compared to DMSO; FIG. 5. As to the method: as §1
The next data set has as its system ApoE. The following applies: Mock- and Jc1-transfected cells; 20 μm pyrrolidine-2; FIG. 9.
Data set [6] concerns DENV. Kind of data set: Infectivity of DENV, limiting dilution titration assay.
Text: A standard limiting dilution titration assay was employed for assessing the relevance of cPLA2α activity for release of infectious DENV particles.
The test system of a further data set is ApoB. As to conditions: Mock- and Jc1-transfected cells; 20 μm pyrrolidine-2; FIG. 9.
The subject of the next data set is HCV core protein. The following applies: lipid droplet fractions; 20 μm pyrrolidine-2 vs untreated cells; FIG. 8A-C. An excerpt:
Standard ELISA and Western Blot protocols were used for the analysis of lipid droplet fractions of untreated cells and cells treated with 20 μm pyrrolidine-2.

Structures are written as SMILES.

Text for ApoB: (§2) A standard ELISA protocol was employed for assessing the relevance of cPLA2α activity for release of lipoproteins carrying ApoB and ApoE.
Text for ApoE: as §2

For the compound `CC(C)CN(Cc1ccccc1-c1ccccc1)[C@@H]1C[C@@H](CNC(=O)C=Cc2ccc(C=C3SC(=O)NC3=O)cc2)N(C(=O)c2ccccc2C(=O)c2ccc(F)cc2F)C1.Cl` [pyrrolidine-2, N-{(2S,4R)-4-(Biphenyl-2-ylmethyl-isobutyl-amino)-1-[2-(2,4-difluorobenzoyl)-benzoyl]-pyrrolidin-2-ylmethyl}-3-[4-(2,4-dioxothiazolidin-5-ylidenemethyl)-phenyl]acrylamide, HCl], in the data set on HCV [1], the “lowering of intracellular virus titer” value is “about 10 fold” and the “reduction of extracellular virus titers” value worked out at 100 fold. Also, the “RNA replication of DENV” value with DENV [2] (FIG. 11A) was “only slightly affected”. Besides, the “release of infectious DENV particles” value in the data set on DENV [2] (FIG. 11B) is “potently inhibited in a dose-dependent manner”. Besides, the “RNA replication of HCV” value in the data set with HCV [3] (FIG. 3A) is “not affected”. The “release of infectious HCV particles” value in the data set with HCV [3] (FIG. 3B) was “potently inhibited in a dose-dependent manner”. Also, in the data set with HCV [4], the viral entry entry was “does not influence viral entry”. The cytotoxicity entry in data set [5] is given as “did not show any cytotoxicity”. Besides, the “reduction of the quantity of secreted ApoE” value in the data set with ApoE is “more than 50%”. The “inactivation of released infectious DENV particles” value with DENV [6] (particles produced in the absence of the inhibitor, then treated with 20 μm pyrrolidine-2, FIG. 12B) is reported as “does not inactivate released infectious particles”. Further, the “reduction of the quantity of released infectious DENV particles” value in the data set with DENV [6] (transfected Huh-7.5 cells treated with 20 μm pyrrolidine-2, FIG. 12A) was “more than 3 orders of magnitude”. Besides, the “reduction of the quantity of secreted ApoB” value with ApoB is on record as “more than 50%”. Further, the “quantity of lipid droplet associated core protein” value with HCV core protein was “reduced”.

Values taken from US20130209403A1, “USE OF INHIBITORS OF PHOSPHOLIPASE A2 FOR THE TREATMENT OR PREVENTION OF FLAVIVIRUS INFECTION” (Ruprecht-Karls-Universitaet, priority 2010, published 2013).
